Measurements from publication PMC9822402, “Investigation on Hydrazonobenzenesulfonamides as Human Carbonic Anhydrase I, II, IX and XII Inhibitors” (Molecules, 2022).

Assays:
hCA II = target: T1, hCA II (Homo sapiens, UniProt P00918); test: stopped-flow CO2 hydrase assay; assay type: biochemical; conditions: read-out: KI (nM) ^1 / CAII
T1 construct: gene CA2; recombinant, obtained in-house

hCA I = target: T2, hCA I (Homo sapiens, UniProt P00915); test: stopped-flow CO2 hydrase assay; assay type: biochemical; conditions: read-out: KI (nM) ^1 / CAI
T2 construct: gene CA1; recombinant, obtained in-house
T2 sequence (P00915 2-261): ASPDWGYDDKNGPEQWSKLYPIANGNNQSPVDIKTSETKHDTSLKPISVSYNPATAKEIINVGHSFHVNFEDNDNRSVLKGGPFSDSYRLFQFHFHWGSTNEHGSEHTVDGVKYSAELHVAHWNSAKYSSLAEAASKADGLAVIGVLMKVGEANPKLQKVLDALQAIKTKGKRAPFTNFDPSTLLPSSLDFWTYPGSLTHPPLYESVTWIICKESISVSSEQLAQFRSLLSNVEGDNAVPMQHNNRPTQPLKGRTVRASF

Structure (SMILES)	Ki (hCA II) [nM]	Ki (hCA I) [nM]
NS(=O)(=O)c1ccc(C(=O)N2CCC(C(=O)N/N=C/c3ccccc3)CC2)cc1 [compound 5, (E)-4-(4-(2-benzylidenehydrazinecarbonyl)piperidine-1-carbonyl)benzenesulfonamide]	4.41	18.5
Cc1ccc(/C=N/NC(=O)C2CCN(C(=O)c3ccc(S(N)(=O)=O)cc3)CC2)cc1 [compound 6, (E)-4-(4-(2-(4-methylbenzylidene)hydrazinecarbonyl)piperidine-1-carbonyl)benzenesulfonamide]	5.62	3240
COc1ccccc1/C=N/NC(=O)C1CCN(C(=O)c2ccc(S(N)(=O)=O)cc2)CC1 [compound 7, (E)-4-(4-(2-(2-methoxybenzylidene)hydrazinecarbonyl)piperidine-1-carbonyl)benzenesulfonamide]	2.94	45.5
COc1cccc(/C=N/NC(=O)C2CCN(C(=O)c3ccc(S(N)(=O)=O)cc3)CC2)c1 [compound 8, (E)-4-(4-(2-(3-methoxybenzylidene)hydrazinecarbonyl)piperidine-1-carbonyl)benzenesulfonamide]	44.3	382
COc1ccc(/C=N/NC(=O)C2CCN(C(=O)c3ccc(S(N)(=O)=O)cc3)CC2)cc1 [compound 9, (E)-4-(4-(2-(4-methoxybenzylidene)hydrazinecarbonyl)piperidine-1-carbonyl)benzenesulfonamide]	4.48	389
COc1ccc(/C=N/NC(=O)C2CCN(C(=O)c3ccc(S(N)(=O)=O)cc3)CC2)c(OC)c1 [compound 10, (E)-4-(4-(2-(2,4-dimethoxybenzylidene)hydrazinecarbonyl)piperidine-1-carbonyl)benzenesulfonamide]	160	1890
COc1ccc(/C=N/NC(=O)C2CCN(C(=O)c3ccc(S(N)(=O)=O)cc3)CC2)cc1OC [compound 11, (E)-4-(4-(2-(3,4-dimethoxybenzylidene)hydrazinecarbonyl)piperidine-1-carbonyl)benzenesulfonamide]	55.1	344
COc1ccc(OC)c(/C=N/NC(=O)C2CCN(C(=O)c3ccc(S(N)(=O)=O)cc3)CC2)c1 [compound 12, (E)-4-(4-(2-(2,5-dimethoxybenzylidene)hydrazinecarbonyl)piperidine-1-carbonyl)benzenesulfonamide]	1.75	24.3
COc1cc(OC)c(OC)cc1/C=N/NC(=O)C1CCN(C(=O)c2ccc(S(N)(=O)=O)cc2)CC1 [compound 13, (E)-4-(4-(2-(2,4,5-trimethoxybenzylidene)hydrazinecarbonyl)piperidine-1-carbonyl)benzenesulfonamide]	3.78	–
COc1cc(/C=N/NC(=O)C2CCN(C(=O)c3ccc(S(N)(=O)=O)cc3)CC2)cc(OC)c1OC [compound 14, (E)-4-(4-(2-(3,4,5-trimethoxybenzylidene)hydrazinecarbonyl)piperidine-1-carbonyl)benzenesulfonamide]	67.6	384
COc1ccc(/C=N/NC(=O)C2CCN(C(=O)c3ccc(S(N)(=O)=O)cc3)CC2)c(Br)c1OC [compound 15, (E)-4-(4-(2-(2-bromo-3,4-dimethoxybenzylidene)hydrazinecarbonyl)piperidine-1-carbonyl)benzenesulfonamide]	65.5	1540
NS(=O)(=O)c1ccc(C(=O)N2CCC(C(=O)N/N=C/c3ccc4ccccc4c3)CC2)cc1 [compound 16, (E)-4-(4-(2-((naphthalen-2-yl)methylene)hydrazinecarbonyl)piperidine-1-carbonyl)benzenesulfonamide]	209	4000
COc1c(/C=N/NC(=O)C2CCN(C(=O)c3ccc(S(N)(=O)=O)cc3)CC2)ccc2ccccc12 [compound 17, (E)-4-(4-(2-((1-methoxynaphthalen-2-yl)methylene)hydrazinecarbonyl)piperidine-1-carbonyl)benzenesulfonamide]	25.2	334
NS(=O)(=O)c1ccc(C(=O)N2CCC(C(=O)N/N=C/c3ccc(C(F)(F)F)cc3)CC2)cc1 [compound 18, (E)-4-(4-(2-(4-(trifluoromethyl)benzylidene)hydrazinecarbonyl)piperidine-1-carbonyl)benzenesulfonamide]	37.4	1750
NS(=O)(=O)c1ccc(C(=O)N2CCC(C(=O)N/N=C/c3cccc(F)c3)CC2)cc1 [compound 19, (E)-4-(4-(2-(3-fluorobenzylidene)hydrazinecarbonyl)piperidine-1-carbonyl)benzenesulfonamide]	92.4	392
NS(=O)(=O)c1ccc(C(=O)N2CCC(C(=O)N/N=C/c3ccc(F)cc3)CC2)cc1 [compound 20, (E)-4-(4-(2-(4-fluorobenzylidene)hydrazinecarbonyl)piperidine-1-carbonyl)benzenesulfonamide]	17.1	340
NS(=O)(=O)c1ccc(C(=O)N2CCC(C(=O)N/N=C/c3cccc([N+](=O)[O-])c3)CC2)cc1 [compound 21, (E)-4-(4-(2-(3-nitrobenzylidene)hydrazinecarbonyl)piperidine-1-carbonyl)benzenesulfonamide]	46.2	1820
NS(=O)(=O)c1ccc(C(=O)N2CCC(C(=O)N/N=C/c3ccc([N+](=O)[O-])cc3)CC2)cc1 [compound 22, (E)-4-(4-(2-(4-nitrobenzylidene)hydrazinecarbonyl)piperidine-1-carbonyl)benzenesulfonamide]	4.92	384
NS(=O)(=O)c1ccc(C(=O)N2CCC(C(=O)N/N=C/c3ccccc3Cl)CC2)cc1 [compound 23, (E)-4-(4-(2-(2-chlorobenzylidene)hydrazinecarbonyl)piperidine-1-carbonyl)benzenesulfonamide]	6.51	482
NS(=O)(=O)c1ccc(C(=O)N2CCC(C(=O)N/N=C/c3cccc(Cl)c3)CC2)cc1 [compound 24, (E)-4-(4-(2-(3-chlorobenzylidene)hydrazinecarbonyl)piperidine-1-carbonyl)benzenesulfonamide]	55.4	398
NS(=O)(=O)c1ccc(C(=O)N2CCC(C(=O)N/N=C/c3ccc(Cl)cc3Cl)CC2)cc1 [compound 25, (E)-4-(4-(2-(2,4-dichlorobenzylidene)hydrazinecarbonyl)piperidine-1-carbonyl)benzenesulfonamide]	6.65	336
NS(=O)(=O)c1ccc(C(=O)N2CCC(C(=O)N/N=C/c3cc(Cl)ccc3Cl)CC2)cc1 [compound 26, (E)-4-(4-(2-(2,5-dichlorobenzylidene)hydrazinecarbonyl)piperidine-1-carbonyl)benzenesulfonamide]	3.64	800
NS(=O)(=O)c1ccc(C(=O)N2CCC(C(=O)N/N=C/c3c(Cl)cccc3Cl)CC2)cc1 [compound 27, (E)-4-(4-(2-(2,6-dichlorobenzylidene)hydrazinecarbonyl)piperidine-1-carbonyl)benzenesulfonamide]	3.57	24.6
